Our source for the IC50 values is patent publication US12258328B2, “6-membered heteroaryl-containing aminopyridine compounds as EGFR inhibitors” (YUHAN CORPORATION, priority 2021, dated 2025).

One test concerns the target EGFR wildtype (Homo sapiens, UniProt P00533). The test is described as follows: Biochemical EGFR kinase assay (Lance Ultra TR-FRET), wildtype. The essentials:
(§1)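 Step 1: compound in kinase buffer, 0.003–10 μM. Step 2: kinase reaction 1 h at room temperature. Step 4: TR-FRET read at 615/665 nm; IC50 calculated.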

For a further test, the target named is EGFR L858R/T790M/C797S (Homo sapiens, UniProt P00533, C797S/L858R/T790M). The test is described as follows: Biochemical EGFR kinase assay (Lance Ultra TR-FRET), triple mutant L858R/T790M/C797S. The essentials: as §1
For the next test, the target named is EGFR del19/T790M/C797S (Homo sapiens, UniProt P00533, C797S/DEL746-750/T790M). The test is described as follows: Biochemical EGFR kinase assay (Lance Ultra TR-FRET), triple mutant del19/T790M/C797S. The procedure, abridged:
as §1

A further test concerns the target EGFR L858R/C797S (Homo sapiens, UniProt P00533, C797S/L858R). The test is described as follows: Biochemical EGFR kinase assay (Lance Ultra TR-FRET), double mutant L858R/C797S. The essentials:
as §1

The target of a further test is EGFR del19/C797S (Homo sapiens, UniProt P00533, C797S/DEL746-750). The test is described as follows: Biochemical EGFR kinase assay (Lance Ultra TR-FRET), double mutant del19/C797S. The procedure, abridged: as §1
The mark [1] stands for this setting: IC50 WT (nM) 100 μM ATP, 100 μM ATP.
The mark [2] stands for this setting: Km ATP, read-out: IC50 WT (nM) Km ATP.
The mark [3] stands for this setting: IC50 L858R/T790M/C797S (nM) 100 μM ATP, 100 μM ATP.
The mark [4] stands for this setting: Km ATP, read-out: IC50 L858R/T790M/C797S (nM) Km ATP.
[5] abbreviates: IC50 del19/T790M/C797S (nM) 100 μM ATP, 100 μM ATP.
Where [6] appears, read: IC50 L858R/C797S (nM) 100 μM ATP, 100 μM ATP.
Where [7] appears, read: IC50 del19/C797S (nM) 100 μM ATP, 100 μM ATP.
Setting [8] is: Km ATP, read-out: IC50 del19/C797S (nM) Km ATP.
Where [9] appears, read: ATP at Km, read-out: IC50 WT, Km ATP.
Setting [10] is: ATP at Km, read-out: IC50 L858R/T790M/C797S, Km ATP.
Where [11] appears, read: IC50 L858R/T790M/C797S, 100 μM ATP.
The mark [12] stands for this setting: ATP at Km, read-out: IC50 del19/T790M/C797S, Km ATP.
Setting [13] is: IC50 del19/T790M/C797S, 100 μM ATP.
[14] abbreviates: ATP at Km, read-out: IC50 L858R/C797S, Km ATP.
[15] abbreviates: ATP at Km, read-out: IC50 del19/C797S, Km ATP.

Read-outs that look alike come from different tables or passages of the source. Bounds are passed on as bounds.

EGFR L858R/C797S, sequence (P00533 25-1210 C797S/L858R): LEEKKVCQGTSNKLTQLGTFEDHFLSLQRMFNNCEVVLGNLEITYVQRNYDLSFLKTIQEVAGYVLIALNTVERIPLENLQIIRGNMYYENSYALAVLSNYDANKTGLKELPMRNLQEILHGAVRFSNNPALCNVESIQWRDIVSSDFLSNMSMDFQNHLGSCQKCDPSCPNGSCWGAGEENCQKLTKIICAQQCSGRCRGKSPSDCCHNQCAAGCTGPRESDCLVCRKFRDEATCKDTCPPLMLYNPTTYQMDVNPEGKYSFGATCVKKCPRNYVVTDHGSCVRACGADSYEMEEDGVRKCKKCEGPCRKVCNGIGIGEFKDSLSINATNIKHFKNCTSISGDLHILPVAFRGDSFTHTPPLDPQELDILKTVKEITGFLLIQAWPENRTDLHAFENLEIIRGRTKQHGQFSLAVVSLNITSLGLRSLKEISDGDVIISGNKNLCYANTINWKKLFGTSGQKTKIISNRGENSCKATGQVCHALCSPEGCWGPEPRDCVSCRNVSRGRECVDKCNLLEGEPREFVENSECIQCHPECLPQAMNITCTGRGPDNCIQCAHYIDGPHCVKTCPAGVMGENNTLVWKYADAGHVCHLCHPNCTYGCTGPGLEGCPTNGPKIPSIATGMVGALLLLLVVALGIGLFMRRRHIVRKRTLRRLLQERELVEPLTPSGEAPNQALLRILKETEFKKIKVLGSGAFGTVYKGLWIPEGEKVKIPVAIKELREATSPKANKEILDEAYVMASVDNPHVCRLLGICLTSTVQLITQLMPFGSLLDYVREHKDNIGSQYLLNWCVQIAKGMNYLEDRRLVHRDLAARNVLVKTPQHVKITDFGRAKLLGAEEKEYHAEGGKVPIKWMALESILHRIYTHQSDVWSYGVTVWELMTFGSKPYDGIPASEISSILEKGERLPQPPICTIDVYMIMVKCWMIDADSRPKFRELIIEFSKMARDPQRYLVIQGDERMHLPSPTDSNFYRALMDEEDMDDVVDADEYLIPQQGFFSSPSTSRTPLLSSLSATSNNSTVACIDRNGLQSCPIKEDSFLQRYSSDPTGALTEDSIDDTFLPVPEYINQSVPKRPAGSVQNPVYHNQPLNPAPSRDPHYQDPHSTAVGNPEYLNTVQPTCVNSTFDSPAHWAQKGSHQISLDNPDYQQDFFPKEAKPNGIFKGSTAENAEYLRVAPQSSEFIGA
EGFR L858R/T790M/C797S, sequence (P00533 25-1210 T790M/C797S/L858R): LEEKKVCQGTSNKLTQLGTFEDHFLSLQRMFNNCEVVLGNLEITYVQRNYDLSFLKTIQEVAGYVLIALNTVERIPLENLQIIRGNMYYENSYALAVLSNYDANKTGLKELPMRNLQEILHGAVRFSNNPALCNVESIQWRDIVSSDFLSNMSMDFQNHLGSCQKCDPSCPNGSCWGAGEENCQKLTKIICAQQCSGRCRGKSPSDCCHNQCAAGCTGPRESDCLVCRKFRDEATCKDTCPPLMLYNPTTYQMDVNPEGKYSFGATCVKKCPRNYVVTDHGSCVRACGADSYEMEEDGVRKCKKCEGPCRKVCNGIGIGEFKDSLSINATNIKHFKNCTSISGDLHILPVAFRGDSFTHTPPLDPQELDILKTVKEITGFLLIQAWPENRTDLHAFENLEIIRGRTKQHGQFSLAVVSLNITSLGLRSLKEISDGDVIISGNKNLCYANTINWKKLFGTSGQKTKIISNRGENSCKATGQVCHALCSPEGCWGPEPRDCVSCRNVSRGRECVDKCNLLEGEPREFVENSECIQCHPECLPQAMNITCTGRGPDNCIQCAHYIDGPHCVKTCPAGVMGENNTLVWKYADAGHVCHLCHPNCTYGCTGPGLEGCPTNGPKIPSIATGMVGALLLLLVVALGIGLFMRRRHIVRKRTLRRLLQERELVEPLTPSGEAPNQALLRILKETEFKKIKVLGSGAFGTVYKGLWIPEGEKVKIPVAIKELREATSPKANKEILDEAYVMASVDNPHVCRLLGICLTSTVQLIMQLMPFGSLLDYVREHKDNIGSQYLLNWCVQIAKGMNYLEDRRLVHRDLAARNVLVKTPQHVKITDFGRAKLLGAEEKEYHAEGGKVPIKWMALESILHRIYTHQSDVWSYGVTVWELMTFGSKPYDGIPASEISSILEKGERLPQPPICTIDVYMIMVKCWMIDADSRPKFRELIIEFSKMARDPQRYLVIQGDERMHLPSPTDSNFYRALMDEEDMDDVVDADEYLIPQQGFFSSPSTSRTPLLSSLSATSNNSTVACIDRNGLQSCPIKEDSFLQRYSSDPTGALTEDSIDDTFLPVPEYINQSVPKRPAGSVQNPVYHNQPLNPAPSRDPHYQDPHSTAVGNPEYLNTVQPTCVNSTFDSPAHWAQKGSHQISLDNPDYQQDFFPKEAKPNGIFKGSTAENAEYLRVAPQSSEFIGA
EGFR wildtype, sequence (P00533 25-1210): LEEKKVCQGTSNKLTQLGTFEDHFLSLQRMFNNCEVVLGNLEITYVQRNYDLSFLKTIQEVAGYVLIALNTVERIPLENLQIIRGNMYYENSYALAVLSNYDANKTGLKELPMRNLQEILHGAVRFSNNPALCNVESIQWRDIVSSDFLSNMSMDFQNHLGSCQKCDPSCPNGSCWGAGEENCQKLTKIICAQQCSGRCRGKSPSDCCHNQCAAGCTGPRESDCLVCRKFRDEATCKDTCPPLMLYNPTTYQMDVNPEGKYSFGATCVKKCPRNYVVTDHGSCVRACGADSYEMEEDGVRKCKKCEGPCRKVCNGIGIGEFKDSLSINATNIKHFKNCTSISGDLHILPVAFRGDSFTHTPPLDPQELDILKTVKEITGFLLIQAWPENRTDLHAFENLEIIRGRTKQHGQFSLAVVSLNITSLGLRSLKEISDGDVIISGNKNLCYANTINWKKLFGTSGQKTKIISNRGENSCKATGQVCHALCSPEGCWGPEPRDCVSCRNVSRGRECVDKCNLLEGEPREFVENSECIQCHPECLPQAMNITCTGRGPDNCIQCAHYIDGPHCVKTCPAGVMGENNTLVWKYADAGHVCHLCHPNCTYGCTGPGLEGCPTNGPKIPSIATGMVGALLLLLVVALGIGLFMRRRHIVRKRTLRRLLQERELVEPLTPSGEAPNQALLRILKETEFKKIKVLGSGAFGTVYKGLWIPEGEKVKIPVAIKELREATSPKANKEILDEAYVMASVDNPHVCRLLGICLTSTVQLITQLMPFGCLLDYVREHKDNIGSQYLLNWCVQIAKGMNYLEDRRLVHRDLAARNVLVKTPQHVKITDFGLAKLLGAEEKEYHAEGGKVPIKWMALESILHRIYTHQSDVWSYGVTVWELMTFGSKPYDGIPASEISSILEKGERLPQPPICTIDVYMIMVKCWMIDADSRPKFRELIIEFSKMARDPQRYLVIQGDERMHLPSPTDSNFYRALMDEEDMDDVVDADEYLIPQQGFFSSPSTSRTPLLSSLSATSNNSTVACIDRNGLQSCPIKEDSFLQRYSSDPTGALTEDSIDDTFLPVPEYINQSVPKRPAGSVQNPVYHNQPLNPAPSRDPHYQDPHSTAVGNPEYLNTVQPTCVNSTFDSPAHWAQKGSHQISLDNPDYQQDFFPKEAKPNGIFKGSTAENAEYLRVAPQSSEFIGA
EGFR del19/C797S, sequence (P00533 with tags, fused parts or gaps DEL746-750/C797S): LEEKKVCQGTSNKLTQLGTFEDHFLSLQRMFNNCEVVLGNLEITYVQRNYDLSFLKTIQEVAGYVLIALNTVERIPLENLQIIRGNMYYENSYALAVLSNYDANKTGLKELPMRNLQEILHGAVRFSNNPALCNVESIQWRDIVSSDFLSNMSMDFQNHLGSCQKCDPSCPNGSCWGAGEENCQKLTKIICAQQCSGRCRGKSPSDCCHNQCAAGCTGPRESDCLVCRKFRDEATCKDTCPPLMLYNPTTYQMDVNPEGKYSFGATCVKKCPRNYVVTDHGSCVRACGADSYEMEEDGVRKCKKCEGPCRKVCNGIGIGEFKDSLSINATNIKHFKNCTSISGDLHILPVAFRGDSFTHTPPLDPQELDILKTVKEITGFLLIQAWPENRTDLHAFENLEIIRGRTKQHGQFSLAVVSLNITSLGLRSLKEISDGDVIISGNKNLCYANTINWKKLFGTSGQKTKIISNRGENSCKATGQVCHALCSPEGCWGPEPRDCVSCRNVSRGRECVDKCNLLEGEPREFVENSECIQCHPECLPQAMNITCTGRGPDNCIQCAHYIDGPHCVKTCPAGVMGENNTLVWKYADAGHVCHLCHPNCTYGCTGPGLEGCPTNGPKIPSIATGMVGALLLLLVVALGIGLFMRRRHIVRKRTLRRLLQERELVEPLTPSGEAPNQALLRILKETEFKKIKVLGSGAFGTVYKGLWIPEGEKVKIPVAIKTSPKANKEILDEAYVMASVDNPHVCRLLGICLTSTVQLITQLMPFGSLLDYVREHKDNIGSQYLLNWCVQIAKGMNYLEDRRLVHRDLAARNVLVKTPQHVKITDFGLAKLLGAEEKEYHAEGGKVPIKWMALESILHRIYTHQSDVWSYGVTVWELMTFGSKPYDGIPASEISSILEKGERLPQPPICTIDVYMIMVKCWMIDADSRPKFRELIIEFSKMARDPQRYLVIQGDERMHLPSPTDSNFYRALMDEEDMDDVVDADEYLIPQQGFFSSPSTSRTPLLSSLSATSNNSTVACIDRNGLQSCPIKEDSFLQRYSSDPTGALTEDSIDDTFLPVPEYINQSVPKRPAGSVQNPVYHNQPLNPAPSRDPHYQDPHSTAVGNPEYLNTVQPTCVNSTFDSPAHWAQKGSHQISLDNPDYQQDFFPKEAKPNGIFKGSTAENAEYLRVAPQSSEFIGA

With `CC(C)(O)c1cc(-c2cnc(Nc3ccnc(-c4cnn(S(=O)(=O)C5CC5)c4)n3)cc2N[C@H]2CC[C@@](C)(O)CC2)ncc1F` [Example 104, (1s,4s)-4-((6′-((2-(1-(Cyclopropylsulfonyl)-1H-pyrazol-4-yl)pyrimidin-4-yl)amino)-5-fluoro-4-(2-hydroxypropan-2-yl)-[2,3′-bipyridin]-4′-yl)amino)-1-methylcyclohexan-1-ol], the IC50 against EGFR wildtype (setting [1]) was more than 10000 nM; at EGFR wildtype (setting [2]) it was 21.9 nM; on EGFR L858R/T790M/C797S (setting [3]), 0.8 nM; on EGFR L858R/T790M/C797S (setting [4]), 0.6 nM; at EGFR del19/T790M/C797S (setting [5]) it was 1.8 nM; at EGFR del19/T790M/C797S (Km ATP, read-out: IC50 del19/T790M/C797S (nM) Km ATP), 1.1 nM. Besides, the IC50 on EGFR L858R/C797S (setting [6]) worked out at 21.6 nM; on EGFR L858R/C797S (Km ATP, read-out: IC50 L858R/C797S (nM) Km ATP) it was 0.9 nM; on EGFR del19/C797S (setting [7]), 3.1 nM; at EGFR del19/C797S (setting [8]), 2.2 nM.

Consider `CN1CCN(C(=O)c2ccc(-c3cnc(Nc4ccnc(-c5cnn(S(=O)(=O)C6CC6)c5)n4)cc3N[C@H]3CC[C@@](C)(O)CC3)nc2)CC1` [Example 199, (6′-((2-(1-(Cyclopropylsulfonyl)-1H-pyrazol-4-yl)pyrimidin-4-yl)amino)-4′-(((1s,4s)-4-hydroxy-4-methylcyclohexyl)amino)-[2,3′-bipyridin]-5-yl)(4-methylpiperazin-1-yl)methanone], for which the IC50 is 0.3 nM on EGFR wildtype (setting [9]); 137 nM at EGFR wildtype (IC50 WT, 100 μM ATP); 0.1 nM at EGFR L858R/T790M/C797S (setting [10]); 0.3 nM on EGFR L858R/T790M/C797S (setting [11]); 0.4 nM on EGFR del19/T790M/C797S (setting [12]); 0.7 nM at EGFR del19/T790M/C797S (setting [13]). The IC50 on EGFR L858R/C797S (setting [14]) worked out at 0.04 nM; at EGFR L858R/C797S (IC50 L858R/C797S, 100 μM ATP), 0.4 nM; on EGFR del19/C797S (setting [15]) it was 0.1 nM; at EGFR del19/C797S (IC50 del19/C797S, 100 μM ATP), 0.3 nM.

As to `C[C@]1(O)CC[C@@H](Nc2cc(Nc3ccnc(-c4cnn(S(=O)(=O)C5CC5)c4)n3)ncc2-c2cc(NCCN3CCOCC3)ccn2)CC1` [Example 279, (1s,4s)-4-((6′-((2-(1-(Cyclopropylsulfonyl)-1H-pyrazol-4-yl)pyrimidin-4-yl)amino)-4 ((2-morpholinoethyl)amino)-[2,3′-bipyridin]-4′-yl)amino)-1-methylcyclohexan-1-ol], the IC50 at EGFR wildtype (setting [9]) was 11.9 nM; against EGFR wildtype (IC50 WT, 100 μM ATP) it was more than 10000 nM; at EGFR L858R/T790M/C797S (setting [10]) it was 0.6 nM; on EGFR del19/T790M/C797S (setting [12]), 2 nM; against EGFR del19/T790M/C797S (setting [13]), 2.9 nM; at EGFR L858R/C797S (setting [14]), 0.9 nM. In addition, the IC50 was 6.6 nM on EGFR L858R/C797S (IC50 L858R/C797S, 100 μM ATP); 1.7 nM on EGFR del19/C797S (setting [15]); 5 nM against EGFR del19/C797S (IC50 del19/C797S, 100 μM ATP).

`C[C@]1(O)CC[C@@H](Nc2cc(Nc3ccnc(-c4cnn(S(=O)(=O)C5CC5)c4)n3)ncc2-c2ccc(N3CC(F)(F)C3)cn2)CC1` [Example 224, (1s,4s)-4-((6′-((2-(1-(Cyclopropylsulfonyl)-1H-pyrazol-4-yl)pyrimidin-4-yl)amino)-5-(3,3-difluoroazetidin-1-yl)-[2,3′-bipyridin]-4′-yl)amino)-1-methylcyclohexan-1-ol]: the IC50 at EGFR wildtype (setting [9]) was 5.2 nM; against EGFR wildtype (IC50 WT, 100 μM ATP), more than 10000 nM; at EGFR L858R/T790M/C797S (setting [10]), 0.4 nM; at EGFR L858R/T790M/C797S (setting [11]), 1.4 nM; on EGFR del19/T790M/C797S (setting [12]), 2 nM; on EGFR del19/T790M/C797S (setting [13]) it was 1.6 nM. The IC50 on EGFR L858R/C797S (IC50 L858R/C797S, 100 μM ATP) came out at 171 nM; at EGFR del19/C797S (setting [15]), 2.1 nM; on EGFR del19/C797S (IC50 del19/C797S, 100 μM ATP) it was 3.5 nM.

Consider `Cc1ccnc(-c2cnc(Nc3ccnc(-c4cnn(S(=O)(=O)C5CC5)c4)n3)cc2N[C@H]2CC[C@@](C)(O)CC2)c1` [Example 12, (1s,4s)-4-((6′-((2-(1-(Cyclopropylsulfonyl)-1H-pyrazol-4-yl)pyrimidin-4-yl)amino)-4-methyl-[2,3′-bipyridin]-4′-yl)amino)-1-methylcyclohexan-1-ol], for which the IC50 was 2690 nM against EGFR wildtype (setting [1]); 3.6 nM at EGFR wildtype (setting [2]); 0.6 nM against EGFR L858R/T790M/C797S (setting [3]); 0.2 nM on EGFR L858R/T790M/C797S (setting [4]); 0.4 nM on EGFR del19/T790M/C797S (setting [5]); 11.5 nM against EGFR L858R/C797S (setting [6]). Besides, the IC50 at EGFR del19/C797S (setting [7]) amounted to 1 nM; on EGFR del19/C797S (setting [8]) it was 0.4 nM.
